Measured values as given in patent publication US7109193B2, “Tricyclic diazepines tocolytic oxytocin receptor antagonists” (Wyeth, priority 2001, dated 2006).

Target: T1, human oxytocin receptor (Homo sapiens, UniProt P30559)
T1 construct: host or cells: CHO cells (pcDNA3.1 vector)
T1 sequence (P30559 1-389): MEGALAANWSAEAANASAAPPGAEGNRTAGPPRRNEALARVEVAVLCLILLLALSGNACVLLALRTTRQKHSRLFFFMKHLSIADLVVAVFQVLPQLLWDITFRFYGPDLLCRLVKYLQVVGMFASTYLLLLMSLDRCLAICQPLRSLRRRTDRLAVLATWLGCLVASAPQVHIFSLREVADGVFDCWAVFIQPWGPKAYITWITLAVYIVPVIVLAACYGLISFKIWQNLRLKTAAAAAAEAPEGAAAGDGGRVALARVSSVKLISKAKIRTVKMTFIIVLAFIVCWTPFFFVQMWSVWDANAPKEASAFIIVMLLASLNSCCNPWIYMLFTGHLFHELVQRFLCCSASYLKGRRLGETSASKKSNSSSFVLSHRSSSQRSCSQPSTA
Test: Oxytocin binding in Chinese Hamster Ovary cell membranes expressing human oxytocin receptors
Details: 100 nM, CHO cell membranes, [3H]oxytocin, values without parentheses, read-out: OT % inhibition @ 100% nM

inhibition at 0.1 µM [%]	SMILES
34	COc1cc(C(=O)N2Cc3ccc(C(=O)N4CCN(CCCN(C)C)CC4)n3Cc3ccccc32)ccc1-n1c(C)ccc1C [Example 320, {4-[3-(Dimethylamino)propyl]-1-piperazinyl}{10-[4-(2,5-dimethyl-1H-pyrrol-1-yl)-3-methoxybenzoyl]-10,11-dihydro-5H-pyrrolo[2,1-c][1,4]benzodiazepin-3-yl}methanone]
71	COc1cc(C(=O)N2Cc3ccc(C(=O)N4CCN(CCCN(C)C)CC4)n3Cc3ccccc32)ccc1-c1cccc2ccccc12 [Example 253, {4-[3-(Dimethylamino)propyl]-1-piperazinyl}{10-[3-methoxy-4-(1-naphthyl)benzoyl]-10,11-dihydro-5H-pyrrolo[2,1-c][1,4]benzodiazepin-3-yl}methanone]
76	COc1cccc(-c2ccc(C(=O)N3Cc4ccc(C(=O)N5CCN(C)CC5)n4Cc4ccccc43)cc2OC)c1 [Example 57, {10-[(2,3′-Dimethoxy[1,1′-biphenyl]-4-yl)carbonyl]-10,11-dihydro-5H-pyrrolo[2,1-c][1,4]benzodiazepin-3-yl}(4-methyl-1-piperazinyl)methanone]
81	COc1cccc(-c2ccc(C(=O)N3Cc4ccc(C(=O)N5CCN(C)CC5)n4Cc4ccccc43)cc2C)c1 [Example 51, {10-[(3′-Methoxy-2-methyl[1,1′-biphenyl]-4-yl)carbonyl]-10,11-dihydro-5H-pyrrolo[2,1-c][1,4]benzodiazepin-3-yl}(4-methyl-1-piperazinyl)methanone]
16	COc1cc(C(=O)N2Cc3ccc(C(=O)N4CCC(N5CCCCC5)CC4)n3Cc3ccccc32)ccc1-n1c(C)ccc1C [Example 311, {10-[4-(2,5-Dimethyl-1H-pyrrol-1-yl)-3-methoxy-benzoyl]-10,11-dihydro-5H-pyrrolo[2,1-c][1,4]benzodiazepin-3-yl}[4-(1-piperidinyl)-1-piperidinyl]-methanone]
33	Cc1cc(C(=O)N2Cc3cccn3Cc3ncccc32)ccc1-c1ccccc1C(F)(F)F [Example 323F, (2-Methyl-2′-trifluoromethyl-[1,1′-biphenyl]-4-yl)-(4H,10H-3a,5,9-triaza-benzo[f]azulen-9-yl)-methanone]
24	COc1cc(C(=O)N2Cc3ccc(C(=O)N4CCN(CCN(C)C)CC4)n3Cc3ccccc32)ccc1-n1c(C)ccc1C [Example 316, {4-[2-(Dimethylamino)ethyl]-1-piperazinyl}{10-[4-(2,5-dimethyl-1H-pyrrol-1-yl)-3-methoxybenzoyl]-10,11-dihydro-5H-pyrrolo[2,1-c][1,4]benzodiazepin-3-yl}methanone]
69	COc1ccccc1-c1ccc(C(=O)N2Cc3ccc(C(=O)n4ccnc4)n3Cc3ccccc32)cc1C [Example 292, 1H-Imidazol-1-yl-{10-[(2′-methoxy-2-methyl[1,1′-biphenyl]-4-yl)carbonyl]-10,11-dihydro-5H-pyrrolo[2,1-c][1,4]benzodiazepin-3-yl}methanone]
32	COc1cc(C(=O)N2Cc3ccc(C(=O)N4CCC(N5CCCC5)CC4)n3Cc3ccccc32)ccc1-n1c(C)ccc1C [Example 313, {10-[4-(2,5-Dimethyl-1H-pyrrol-1-yl)-3-methoxybenzoyl]-10,11-dihydro-5H-pyrrolo[2,1-c][1,4]benzodiazepin-3-yl}[4-(1-pyrrolidinyl)-1-piperidinyl]methanone]
97	COc1cc(C(=O)N2Cc3cccn3Cc3ccccc32)ccc1-c1ccccc1C(F)(F)F [Example 19D, (10,11-Dihydro-5H-pyrrolo[2,1-c][1,4]benzodiazepin-10-yl)-(2-methoxy-2′-trifluoromethyl-[1,1′-biphenyl]-4-yl)-methanone]
53	COc1ccccc1-c1ccc(C(=O)N2Cc3ccc(C(=O)n4ccnc4)n3Cc3ccccc32)cc1OC [Example 293, {10-[(2,2′-Dimethoxy[1,1′-biphenyl]-4-yl)carbonyl]-10,11-dihydro-5H-pyrrolo[2,1-c][1,4]benzodiazepin-3-yl}(1H-imidazol-1-yl)methanone]
77	COc1cccc(-c2ccc(C(=O)N3Cc4ccc(C(=O)N5CCN(CCCN(C)C)CC5)n4Cc4ccccc43)cc2C)c1 [Example 248, {4-[3-(Dimethylamino)propyl]-1-piperazinyl}{10-[(3′-methoxy-2-methyl[1,1′-biphenyl]-4-yl)carbonyl]-10,11-dihydro-5H-pyrrolo[2,1-c][1,4]benzodiazepin-3-yl}methanone]
74	COc1ccccc1-c1ccc(C(=O)N2Cc3ccc(C(=O)NCCCN(C)C)n3Cc3ccccc32)cc1C [Example 72, N-[3-(Dimethylamino)propyl]-10-[(2′-methoxy-2-methyl[1,1′-biphenyl]-4-yl)carbonyl]-10,11-dihydro-5H-pyrrolo[2,1-c][1,4]benzodiazepine-3-carboxamide]
64	COc1cc(C(=O)N2Cc3ccc(C(=O)N4CCCN(C)CC4)n3Cc3ccccc32)ccc1-c1cccc2ccccc12 [Example 68, {10-[3-Methoxy-4-(1-naphthyl)benzoyl]-10,11-dihydro-5H-pyrrolo[2,1-c][1,4]benzodiazepin-3-yl}(4-methyl-1,4-diazepan-1-yl)methanone]
30	COc1cc(C(=O)N2Cc3ccc(C(=O)N4CCCN(C)CC4)n3Cc3ccccc32)ccc1-n1c(C)ccc1C [Example 307, {10-[4-(2,5-Dimethyl-1H-pyrrol-1-yl)-3-methoxybenzoyl]-10,11-dihydro-5H-pyrrolo[2,1-c][1,4]benzodiazepin-3-yl}(4-methyl-1,4-diazepan-1-yl)methanone]
25	CN1CCCN(C(=O)c2ccc3n2Cc2ccccc2N(C(=O)c2ccc(-c4cccc5ccccc45)cc2Cl)C3)CC1 [Example 71, {10-[2-Chloro-4-(1-naphthyl)benzoyl]-10,11-dihydro-5H-pyrrolo[2,1-c][1,4]benzodiazepin-3-yl}(4-methyl-1,4-diazepan-1-yl)methanone]
91	COc1ccccc1-c1ccc(C(=O)N2Cc3ccc(C(=O)N4CCCN(C)CC4)n3Cc3ccccc32)cc1C [Example 62, {10-[(2′-Methoxy-2-methyl[1,1′-biphenyl]-4-yl)carbonyl]-10,11-dihydro-5H-pyrrolo[2,1-c][1,4]benzodiazepin-3-yl}(4-methyl-1,4-diazepan-1-yl)methanone]
33	CN(C)CCCN1CCN(C(=O)c2ccc3n2Cc2ccccc2N(C(=O)c2ccc(-c4cccc5ccccc45)cc2Cl)C3)CC1 [Example 256, {10-[2-Chloro-4-(1-naphthyl)benzoyl]-10,11-dihydro-5H-pyrrolo[2,1-c][1,4]benzodiazepin-3-yl}{4-[3-(dimethylamino)propyl]-1-piperazinyl}methanone]
51	O=C(c1ccc(-c2ccccc2)nc1)N1Cc2cccn2Cc2ccccc21 [Example 29, (6-Phenyl-pyridin-3-yl)-[10,11-dihydro-5H-pyrrolo[2,1-c][1,4]benzodiazepin-10-yl]methanone]
66	COc1ccccc1-c1ccc(C(=O)N2Cc3ccc(C(=O)N4CCN(CCCN(C)C)CC4)n3Cc3ccccc32)cc1OC [Example 254, {10-[(2,2′-Dimethoxy[1,1′-biphenyl]-4-yl)carbonyl]-10,11-dihydro-5H-pyrrolo[2,1-c][1,4]benzodiazepin-3-yl}{4-[3-(dimethylamino)propyl]-1-piperazinyl}methanone]
65	COc1cc(C(=O)N2Cc3ccc(C(=O)NCCCN(C)C)n3Cc3ccccc32)ccc1-c1ccccc1C [Example 77, N-[3-(Dimethylamino)propyl]-10-[(2-methoxy-2′-methyl[1,1′-biphenyl]-4-yl)carbonyl]-10,11-dihydro-5H-pyrrolo[2,1-c][1,4]benzodiazepine-3-carboxamide]
66	COc1ccccc1-c1ccc(C(=O)N2Cc3ccc(C(=O)NCCCN(C)C)n3Cc3ccccc32)cc1 [Example 75, N-[3-(Dimethylamino)propyl]-10-[(2′-methoxy[1,1′-biphenyl]-4-yl)carbonyl]-10,11-dihydro-5H-pyrrolo[2,1-c][1,4]benzodiazepine-3-carboxamide]
87	COc1cc(-c2ccccc2C)c(Cl)cc1C(=O)N1Cc2ccc(C(=O)N3CCN(CCCN(C)C)CC3)n2Cc2ccccc21 [Example 251, {10-[(6-Chloro-3-methoxy-2′-methyl[1,1′-biphenyl]-4-yl)carbonyl]-10,11-dihydro-5H-pyrrolo[2,1-c][1,4]benzodiazepin-3-yl}{4-[3-(dimethylamino)propyl]-1-piperazinyl}methanone]

SMILES	inhibition at 0.1 µM [%]
COc1ccccc1-c1ccc(C(=O)N2Cc3ccc(C(=O)N[C@H]4CN5CCC4CC5)n3Cc3ccccc32)cc1OC [Example 299, N-[(3R)-1-Azabicyclo[2.2.2]oct-3-yl]-10-[(2,2′-dimethoxy[1,1′-biphenyl]-4-yl)carbonyl]-10,11-dihydro-5H-pyrrolo[2,1-c][1,4]benzodiazepine-3-carboxamide]	86
COc1ccccc1-c1ccc(C(=O)N2Cc3ccc(C(=O)N[C@H]4CN5CCC4CC5)n3Cc3ccccc32)cc1 [Example 296, N-[(3R)-1-Azabicyclo[2.2.2]oct-3-yl]-10-[(2′-methoxy[1,1′-biphenyl]-4-yl)carbonyl]-10,11-dihydro-5H-pyrrolo[2,1-c][1,4]benzodiazepine-3-carboxamide]	88
